Values joined by “and” are separate entries in the source; they are usually repeats but may differ in a detail not shown here. Identical values can stand only once.
Experiments:
[1] = cited from earlier work
[2] = tested on: A431 epidermoid carcinoma (ATCC CRL-1555); test: Established A431 xenografts, repeated injection every 2nd day over 10 days, long-term follow-up (FIGS. 6-8)
Experimental: A431 epidermoid carcinoma tumours were grafted into nude CD-1 mice and left to establish (˜5 mm). Animals were treated by injection of the relevant formulation every 2nd day over 10 days (5 injections). […] Tumour volume doubling time was measured as a surrogate endpoint as substantial tumour growth immediately precedes tumour related mortality.
All formulations were prepared as solutions (or suspensions) in 5% dextrose.
(§4) Animals were injected intravenously (0.2 ml per injection) with the different formulations either once or alternatively on a schedule every other day (0.5 q.d.) over 10 days (every second day, 5 injection). […] Each group consisted of 5 animals (n=5). As a control DAB 16-DNA complexes were prepared as previously described [36] by mixing dendrimer and DNA (50 μg) at a 5:1 weight ratio in a 5% dextrose solution (200 μl/animal). Free plasmid DNA (50 μg) was given in 200 μL 5% dextrose. Animals were monitored at regular intervals, the tumour size was determined using callipers, and body weight measured and recorded.

[3] = tested on: LS174T Human Colorectal Adenocarcinoma (ATCC CCL-188) xenografts; test: Established LS174T xenografts, treatment q.2d 5x (FIG. 4); assay type: in vivo, mice; conditions: LS174T colorectal tumours, q.2d 5x i.v.
Experimental: (§1) Female mice (CD1-nu, initial mean weight 20 g) were housed in groups of five in suspended plastic cages at 19-23° C. with a 12 h light-dark cycle. A conventional diet (Rat and Mouse Standard Expanded, B and K Universal, Grimston, UK) and water from the mains were available ad libidum. Experimental work was carried out in accordance with UK Home Office regulations and approved by the local ethics committee.
(§2) Tumour cells [LS174 Human Colorectal Adenocarcinoma (ATCC CL-188), A431 Epidermoid Carcinoma (ATCC CRL-1555), C33a Human Cervix Carcinoma (ATCC HTB31)] were grown as monolayers in 75 cm^2 flasks in Dulbecco's Modified Eagle's Medium (DMEM) supplemented with 10% (v/v) foetal bovine serum (FBS) and 1% (v/v) glutamine, in a humid atmosphere of 5% CO2 at 37° C. Medium was changed twice a week. Cells were subcultured every seven days by trypsin treatment and experiments were conducted when the cells were in exponential phase. […]
(§3) Animals were injected intravenously (0.2 ml per injection) with the different formulations either once or alternatively on a schedule every other day (0.5 q.d.) over 10 days (every second day, 5 injection). […] Animals were monitored at regular intervals, the tumour size was determined using callipers, and body weight measured and recorded. Expression of genes containined on nucleic acids complexed with the various polymers was measured as described previously.

[4] = tested on: C33a Human Cervix Carcinoma (ATCC HTB31) xenografts; test: Established C33a xenografts, treatment q.2d 5x (FIG. 5); assay type: in vivo, mice; conditions: C33a cervix carcinomas, q.2d 5x i.v.
Experimental: as §1, §2, §3

[5] = tested on: A431 epidermoid carcinoma cells; test: Cytostatic effects of cationic polymers on tumour cells in vitro (FIG. 1); assay type: cell-based; conditions: lysis control
Experimental: A431 epidermoid carcinoma cells were treated with various cationic polymers. PEI, Superfect and various DAB polymers were added to the culture medium at concentrations of 0.45 μL/mL, 5 μL/mL and 12.5 μg/mL respectively for the duration of the experiment.

[6] = Systemic toxicity, tolerability and body weight after intravenous injection (FIG. 3); assay type: in vivo
Experimental: All formulations were prepared as solutions (or suspensions) in 5% dextrose. Each dose contained 250 μg of DAB 4, DAB 16, DAB 32, QDAB8, respectively. The PAMAM dendrimer and linear PEI were given as dilutions of Superfect (100 μl per animal) and Exgen (9 μl per animal) respectively, in 5% dextrose solution.
as §4

Compound: N[C@@H](CC(=O)O)C(=O)O [Aspartic acid]
- pKa of the α-NH3+ group [1]: 10.0

Compound: C[C@H](N)C(=O)O [Alanine]
- pKa of the α-NH3+ group [1]: 9.9

Compound: NCCCN(CCCN)CCCN(CCCN(CCCN)CCCN)CCCN(CCCCN(CCCN(CCCN(CCCN)CCCN)CCCN(CCCN)CCCN)CCCN(CCCN(CCCN)CCCN)CCCN(CCCN)CCCN)CCCN(CCCN(CCCN)CCCN)CCCN(CCCN)CCCN [DAB16]
- survival of the treated mice ([2]; 0.5 q.d. X5, long term experiment): long term survival
- complete disappearance of tumours, 2 mice ([2]; 0.5 q.d. X5, n=5): 43 days and 51 days
- start of decrease of the tumour size, 2 mice ([2]; 0.5 q.d. X5, n=5): 23 days
- start of decrease of the tumour size, all the mice ([2]; 0.5 q.d. X5, n=5): 33 days
- long-term tumour growth delay (tumour volume doubling time as surrogate endpoint) ([2]; 5 injections over 10 days, FIG. 7): improved long-term growth reduction
- tumour growth ([2]; A431 epidermoid carcinoma model, q.2d 5x i.v.): inhibited tumour growth significantly
- tumour growth [3]: inhibited tumour growth significantly
- tumour growth [4]: inhibited tumour growth significantly

Compound: triton X
- cell number [5]: decrease in cell number consistent with cell lysis

Compound: N[C@@H](CO)C(=O)O [Serine]
- pKa of the α-NH3+ group [1]: 9.1

Compound: NCCCN(CCCN)CCCN(CCCCN(CCCN(CCCN)CCCN)CCCN(CCCN)CCCN)CCCN(CCCN)CCCN [DAB8]
- time to death after i.v. injection [6]: 5 to 10 s
